# Test results from patent US11717508B2, “Compounds, compositions, and methods for inhibiting bacterial growth” (priority 2016, dated 2023).
# Where two headings read alike, the source gives them in different places.
# System: DosRST regulon
# Assay type: cell-based
# Settings: for WT DMSO/WT HC102A Fold change / log2 Fold change: upregulated
# [1] = Rv2626c, WT Mtb treated with HC102A compared to DMSO
# [2] = Rv2627c, WT Mtb treated with HC102A compared to DMSO
# [3] = Rv2628, WT Mtb treated with HC102A compared to DMSO
# [4] = Rv2629, WT Mtb treated with HC102A compared to DMSO
# [5] = Rv2630, WT Mtb treated with HC102A compared to DMSO
# [6] = Rv2631, WT Mtb treated with HC102A compared to DMSO
# [7] = Rv3083, WT Mtb treated with HC102A compared to DMSO
# [8] = Rv3084 lipR, WT Mtb treated with HC102A compared to DMSO
# [9] = Rv3085, WT Mtb treated with HC102A compared to DMSO
# [10] = Rv3127, WT Mtb treated with HC102A compared to DMSO
# [11] = Rv3130c, WT Mtb treated with HC102A compared to DMSO
# [12] = Rv3131, WT Mtb treated with HC102A compared to DMSO
# [13] = Rv3132c, WT Mtb treated with HC102A compared to DMSO
# [14] = Rv3133c, WT Mtb treated with HC102A compared to DMSO
# [15] = Rv3134c, WT Mtb treated with HC102A compared to DMSO
# [16] = Rv3839, WT Mtb treated with HC102A compared to DMSO
# [17] = WT Mtb treated with HC102A compared to DMSO
# [18] = WT Mtb treated with HC102A, replicate 1
# [19] = WT Mtb treated with HC102A, replicate 2
smiles,measurement,setting,value
"C[C@@H]1CC(C)(C)C[C@]2(C1)NC(=O)NC2=O (racemic) [HC102A, 7,7,9-trimethyl-1,3-diazaspiro[4.5]decane-2,4-dione]","log2 Fold change, gene MT2700","Rv2625c, WT Mtb treated with HC102A compared to DMSO",−5.149
same,"Counts per million (CPM) WT_HC102A1, gene MT2700","Rv2625c, WT Mtb treated with HC102A, replicate 1",146.1 CPM
same,"Counts per million (CPM) WT_HC102A2, gene MT2700","Rv2625c, WT Mtb treated with HC102A, replicate 2",111.9 CPM
same,"Fold change, gene MT2701",[1],0.04398
same,"log2 Fold change, gene MT2701",[1],−4.507
same,"Counts per million (CPM) WT_HC102A1, gene MT2701","Rv2626c, WT Mtb treated with HC102A, replicate 1",447.5 CPM
same,"Counts per million (CPM) WT_HC102A2, gene MT2701","Rv2626c, WT Mtb treated with HC102A, replicate 2",554.5 CPM
same,"Fold change, gene MT2702",[2],0.01981
same,"log2 Fold change, gene MT2702",[2],−5.658
same,"Counts per million (CPM) WT_HC102A1, gene MT2702","Rv2627c, WT Mtb treated with HC102A, replicate 1",101.3 CPM
same,"Counts per million (CPM) WT_HC102A2, gene MT2702","Rv2627c, WT Mtb treated with HC102A, replicate 2",156.7 CPM
same,"Fold change, gene MT2703",[3],0.03499
same,"log2 Fold change, gene MT2703",[3],−4.837
same,"Counts per million (CPM) WT_HC102A1, gene MT2703","Rv2628, WT Mtb treated with HC102A, replicate 1",20.64 CPM
same,"Counts per million (CPM) WT_HC102A2, gene MT2703","Rv2628, WT Mtb treated with HC102A, replicate 2",33.42 CPM
same,"Fold change, gene MT2704",[4],0.09873
same,"log2 Fold change, gene MT2704",[4],−3.34
same,"Counts per million (CPM) WT_HC102A1, gene MT2704","Rv2629, WT Mtb treated with HC102A, replicate 1",540.6 CPM
same,"Counts per million (CPM) WT_HC102A2, gene MT2704","Rv2629, WT Mtb treated with HC102A, replicate 2",660.1 CPM
same,"Fold change, gene MT2705",[5],0.0994
same,"log2 Fold change, gene MT2705",[5],−3.331
same,"Counts per million (CPM) WT_HC102A1, gene MT2705","Rv2630, WT Mtb treated with HC102A, replicate 1",71.28 CPM
same,"Counts per million (CPM) WT_HC102A2, gene MT2705","Rv2630, WT Mtb treated with HC102A, replicate 2",56.05 CPM
same,"Fold change, gene MT2707",[6],0.1179
same,"log2 Fold change, gene MT2707",[6],−3.085
same,"Counts per million (CPM) WT_HC102A1, gene MT2707","Rv2631, WT Mtb treated with HC102A, replicate 1",110.9 CPM
same,"Counts per million (CPM) WT_HC102A2, gene MT2707","Rv2631, WT Mtb treated with HC102A, replicate 2",72.59 CPM
same,"Fold change, gene MT3168",[7],0.2851
same,"log2 Fold change, gene MT3168",[7],−1.81
same,"Counts per million (CPM) WT_HC102A1, gene MT3168","Rv3083, WT Mtb treated with HC102A, replicate 1",100.3 CPM
same,"Counts per million (CPM) WT_HC102A2, gene MT3168","Rv3083, WT Mtb treated with HC102A, replicate 2",66.84 CPM
same,"Fold change, gene MT3169",[8],0.2724
same,"log2 Fold change, gene MT3169",[8],−1.876
same,"Counts per million (CPM) WT_HC102A1, gene MT3169","Rv3084 lipR, WT Mtb treated with HC102A, replicate 1",16.74 CPM
same,"Counts per million (CPM) WT_HC102A2, gene MT3169","Rv3084 lipR, WT Mtb treated with HC102A, replicate 2",9.205 CPM
same,"Fold change, gene MT3170",[9],0.3224
same,"log2 Fold change, gene MT3170",[9],−1.633
same,"Counts per million (CPM) WT_HC102A1, gene MT3170","Rv3085, WT Mtb treated with HC102A, replicate 1",11.79 CPM
same,"Counts per million (CPM) WT_HC102A2, gene MT3170","Rv3085, WT Mtb treated with HC102A, replicate 2",8.619 CPM
same,"Fold change, gene MT3212",[10],0.0633
same,"log2 Fold change, gene MT3212",[10],−3.982
same,"Counts per million (CPM) WT_HC102A1, gene MT3212","Rv3127, WT Mtb treated with HC102A, replicate 1",690.1 CPM
same,"Counts per million (CPM) WT_HC102A2, gene MT3212","Rv3127, WT Mtb treated with HC102A, replicate 2",898.2 CPM
same,"Fold change, gene MT3216",[11],0.05498
same,"log2 Fold change, gene MT3216",[11],−4.185
same,"Counts per million (CPM) WT_HC102A1, gene MT3216","Rv3130c, WT Mtb treated with HC102A, replicate 1","1,395.93 CPM"
same,"Counts per million (CPM) WT_HC102A2, gene MT3216","Rv3130c, WT Mtb treated with HC102A, replicate 2","1,787.99 CPM"
same,"Fold change, gene MT3217",[12],0.03013
same,"log2 Fold change, gene MT3217",[12],−5.053
same,"Counts per million (CPM) WT_HC102A1, gene MT3217","Rv3131, WT Mtb treated with HC102A, replicate 1",415.6 CPM
same,"Counts per million (CPM) WT_HC102A2, gene MT3217","Rv3131, WT Mtb treated with HC102A, replicate 2",421.7 CPM
same,"Fold change, gene MT3218",[13],0.0994
same,"log2 Fold change, gene MT3218",[13],−3.331
same,"Counts per million (CPM) WT_HC102A1, gene MT3218","Rv3132c, WT Mtb treated with HC102A, replicate 1",439 CPM
same,"Counts per million (CPM) WT_HC102A2, gene MT3218","Rv3132c, WT Mtb treated with HC102A, replicate 2",364.8 CPM
same,"Fold change, gene MT3219",[14],0.07283
same,"log2 Fold change, gene MT3219",[14],−3.779
same,"Counts per million (CPM) WT_HC102A1, gene MT3219","Rv3133c, WT Mtb treated with HC102A, replicate 1",233.8 CPM
same,"Counts per million (CPM) WT_HC102A2, gene MT3219","Rv3133c, WT Mtb treated with HC102A, replicate 2",174 CPM
same,"Fold change, gene MT3220",[15],0.04505
same,"log2 Fold change, gene MT3220",[15],−4.472
same,"Counts per million (CPM) WT_HC102A1, gene MT3220","Rv3134c, WT Mtb treated with HC102A, replicate 1",264.6 CPM
same,"Counts per million (CPM) WT_HC102A2, gene MT3220","Rv3134c, WT Mtb treated with HC102A, replicate 2",171.8 CPM
same,"Fold change, gene MT3947",[16],0.2314
same,"log2 Fold change, gene MT3947",[16],−2.111
same,"Counts per million (CPM) WT_HC102A1, gene MT3947","Rv3839, WT Mtb treated with HC102A, replicate 1",25.93 CPM
same,"Counts per million (CPM) WT_HC102A2, gene MT3947","Rv3839, WT Mtb treated with HC102A, replicate 2",7.681 CPM
same,"Fold change, gene MT0598",[17],0.2421
same,"Fold change, gene MT0600",[17],0.1586
same,"Fold change, gene MT1096",[17],0.3436
same,"Fold change, gene MT1385",[17],0.3712
same,"Fold change, gene MT1775",[17],0.2046
same,"Fold change, gene MT1777",[17],0.1265
same,"Fold change, gene MT2088",[17],0.0678
same,"Fold change, gene MT2090",[17],0.1133
same,"Fold change, gene MT3209",[17],0.4
same,"Fold change, gene MT3210",[17],0.04949
same,"log2 Fold change, gene MT0598",[17],−2.046
same,"log2 Fold change, gene MT0600",[17],−2.656
same,"log2 Fold change, gene MT1096",[17],−1.541
same,"log2 Fold change, gene MT1385",[17],−1.43
same,"log2 Fold change, gene MT1775",[17],−2.289
same,"log2 Fold change, gene MT1777",[17],−2.983
same,"log2 Fold change, gene MT2088",[17],−3.883
same,"log2 Fold change, gene MT2090",[17],−3.141
same,"log2 Fold change, gene MT3209",[17],−1.322
same,"log2 Fold change, gene MT3210",[17],−4.337
same,"Counts per million (CPM) WT_HC102A1, gene MT0598",[18],57.71 CPM
same,"Counts per million (CPM) WT_HC102A1, gene MT0600",[18],129.6 CPM
same,"Counts per million (CPM) WT_HC102A1, gene MT1096",[18],9.103 CPM
same,"Counts per million (CPM) WT_HC102A1, gene MT1385",[18],56.65 CPM
same,"Counts per million (CPM) WT_HC102A1, gene MT1775",[18],172.1 CPM
same,"Counts per million (CPM) WT_HC102A1, gene MT1777",[18],11.46 CPM
same,"Counts per million (CPM) WT_HC102A1, gene MT2088",[18],254.1 CPM
same,"Counts per million (CPM) WT_HC102A1, gene MT2090",[18],"3,874.46 CPM"
same,"Counts per million (CPM) WT_HC102A1, gene MT3209",[18],5.689 CPM
same,"Counts per million (CPM) WT_HC102A1, gene MT3210",[18],0.5689 CPM
same,"Counts per million (CPM) WT_HC102A2, gene MT0598",[19],66.55 CPM
same,"Counts per million (CPM) WT_HC102A2, gene MT0600",[19],211.3 CPM
same,"Counts per million (CPM) WT_HC102A2, gene MT1096",[19],3.811 CPM
same,"Counts per million (CPM) WT_HC102A2, gene MT1385",[19],35.06 CPM
same,"Counts per million (CPM) WT_HC102A2, gene MT1775",[19],61.8 CPM
same,"Counts per million (CPM) WT_HC102A2, gene MT1777",[19],24.1 CPM
same,"Counts per million (CPM) WT_HC102A2, gene MT2088",[19],225.6 CPM
same,"Counts per million (CPM) WT_HC102A2, gene MT2090",[19],"5,782.55 CPM"
same,"Counts per million (CPM) WT_HC102A2, gene MT3209",[19],5.394 CPM
same,"Counts per million (CPM) WT_HC102A2, gene MT3210",[19],0.1173 CPM
same,Counts per million (CPM) WT_HC102A1,"gene MT3514 (Rv3406), replicate 1",494.4 CPM
same,Counts per million (CPM) WT_HC102A2,"gene MT3514 (Rv3406), replicate 2",168 CPM
same,WT DMSO/WT HC102A Fold change,gene MT3514 (Rv3406),6.242
same,log2 Fold change,gene MT3514 (Rv3406),2.642
same,Counts per million (CPM) WT_HC102A1,"gene MT3515 (Rv3407), replicate 1",191.1 CPM
same,Counts per million (CPM) WT_HC102A2,"gene MT3515 (Rv3407), replicate 2",103.1 CPM
same,WT DMSO/WT HC102A Fold change,gene MT3515 (Rv3407),2.831
same,log2 Fold change,gene MT3515 (Rv3407),1.501
